From PubChem BioAssay (NCI) come the findings set out here.

Test in all cases: inhibition of tumour cell growth, NCI panel, 48 h
The test system of assay [1] is CCRF-CEM leukemia.
The test system of assay [2] is LOX IMVI melanoma.
For assay [3], the system named is M19-MEL melanoma.
Assay [4] has as its system NCI-H522 lung.
The test system of assay [5] is OVCAR-4 ovarian.
Assay [6] deals with SN12C renal.
In assay [7] the test system is SNB-75 CNS.
Assay [8] relates to SF-295 CNS.
For assay [9], the system named is CAKI-1 renal.
The test system of assay [10] is OVCAR-8 ovarian.

Where “and” joins values, the source holds several entries; their conditions need not be identical. Equal entries are not always repeated.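 The compound was tested at five concentrations on cells cultured in 96-well plates, with a 48-hour exposure period. GI50 = concentration required for 50% inhibition of growth. TGI marks complete inhibition of growth.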 Bounds are passed on as bounds.

`O=S(O)c1cc(Cl)c(O)c(Cl)c1`: the TGI in assay [1], in assay [2], in assay [3], in [4], in assay [5] and in assay [6] was greater than 100 µM throughout. The compound further displayed a TGI in [7] greater than 100 µM.
As for `Cn1c(=O)c2[nH]c(SC/C(=N/O)c3ccc(Br)cc3)nc2n(C)c1=O`, the GI50 in assay [1] is 14.3 µM; in [2], 3.12 µM; in assay [8], 1.82 µM; in assay [7] it was 2.04 µM. The TGI in [1] was 57.1 µM; in [2], greater than 100 µM; in assay [8], 4.1 µM; in assay [7], 5.07 µM.
On to `COc1ccc2c3/c(=C\c4ccc(N(C)C)cc4)c4ccccc4n3[n+](C)c2c1`, for which the GI50 in assay [9] is 0.723 µM; in assay [1] it was 0.051 µM; in assay [2], 0.094 µM; in [4], 0.182 µM; in assay [5], 0.987 µM; in assay [10], 0.0474 µM. Further, the figures for the GI50 in assay [8] and in [7] were 0.202 µM and 0.578 µM, respectively. Further, the TGI in [9] was 2.51 µM; in assay [1] it was 2.09 µM; in assay [2] it was greater than 100 µM; in [4] it was greater than 100 µM; in assay [5], 6.46 µM; in assay [10], 2.33 µM. In addition, in assay [7], the TGI was 4.18 µM.
For the compound `COc1ccccc1C(=O)OCC1CCCN2CCCCC12` (stereo unspecified), the TGI in assay [9] was greater than 100 µM; in [1], 46.1 µM; in assay [2] it was 34.8 µM; in assay [5], greater than 100 µM; in assay [10], 45.8 µM; in assay [8] it was greater than 100 µM. Moreover, the figures for the TGI in assay [6] and in assay [7] were 96 µM and 63.4 µM, respectively.
For `Cc1cc(O)c2c(c1)C(C1c3cccc(O)c3C(=O)c3c(O)cc(C)cc31)c1cccc(O)c1C2=O` (stereo unspecified), the TGI in assay [9] stood at 7.06 µM; in assay [1] it was 10.1 µM; in [2] it was 11.4 µM; in [4] it was 3.44 µM; in assay [5] it was 5.1 µM; in assay [10] it was 16.1 µM. For the same compound, the TGI was determined as 4.31 µM in assay [8], 3.23 µM in assay [6] and 0.855 µM in assay [7].
As to `O=C1C(=C([O-])c2ccccc2)C(=O)c2ccccc21.O=C1C(=C([O-])c2ccccc2)C(=O)c2ccccc21.[Ni+2]`, the GI50 in assay [9] is 33.9 µM; in assay [1], 54.7 µM; in [2], 34.6 µM; in assay [5], 61.6 µM; in [10], 48.1 µM; in [8], 41.4 µM. Moreover, the GI50 in assay [6] was 51.3 µM; in [7], 35.2 µM. Besides, the TGI in [9], in assay [1], in assay [2], in [5], in assay [10] and in assay [8] was greater than 100 µM each time. Also, the TGI in [6] and in assay [7] was greater than 100 µM each time.
As to `O=c1[nH]c(=O)n(C2CC(O)C(CO)O2)cc1Br` (stereo unspecified), the TGI in assay [9], in [1], in assay [2], in assay [4], in [5] and in [10] was greater than 100 µM in each case. The TGI in assay [8], in assay [6] and in [7] was greater than 100 µM throughout.
As to `CC1OC(O[C@@H]2C=C3CC[C@@H]4[C@H](CC[C@]5(C)[C@@H](c6ccc(=O)oc6)CC[C@]45O)[C@@]3(C)CC2)C(O)C(OC2OC(CO)C(O)C(O)C2O)C1O` (stereo partly specified), the TGI in [9] was 0.0015 µM; in [1], 0.133 µM; in assay [3], 0.039 µM; in assay [4] it was 0.000427 µM; in [5] it was 0.00798 µM; in assay [10], 0.0162 µM and 0.0299 µM. For the same compound, the TGI in [7] is 0.0587 µM and 0.0407 µM. The GI50 in [7] is 0.000974 µM.
`COc1cc(O)c(Cc2ccccc2O)c(O)c1C(=O)CCc1ccccc1`: the TGI in assay [9] is 13 µM; in assay [1], 22.5 µM; in [2], 22.9 µM; in [3], 20.5 µM; in [4], 9.21 µM; in [5], 18.5 µM. The TGI in assay [10] was 28.1 µM; in assay [8], 16.1 µM; in assay [6], 17 µM; in assay [7], 19.7 µM.
In the case of `NC(=O)/N=C/c1c(O)c2ccccc2oc1=O`, the TGI in [1], in [2], in assay [5], in assay [10], in assay [8] and in assay [6] was greater than 100 µM each time.
